Experimental data reported in patent US9688676B2, “Tyrosine kinase inhibitors” (PRINCIPIA BIOPHARMA INC., priority 2015, dated 2017).

Tests used:
BTK [1] = molecular target: T1, BTK (Homo sapiens (Human), UniProt Q06187); test: Determination of drug-kinase residence time (TR-FRET tracer competition, occupancy after washout); assay type: binding; settings: 1.5 μM compound, 500 nM BTK; for % occupany at 1 h: 1 h of washout; for % occupany at 6 h: 6 h of washout; for % occupany at 24 h: 24 h of washout
Protocol: The experiment was conducted in a buffer consisting of 50 mM Hepes pH 7.5, 10 mM MgCl2, 0.01% Triton X-100, and 1 mM EGTA.
The mixture was then diluted 5-fold by addition of 40 μL of buffer. […] In order to probe for reversibility of the kinase-compound binding interaction, a competition solution containing both a high affinity fluorescent tracer and an antibody coupled to Europium was prepared. […] The competition solution also contained 80 nM of an Anti-polyhistidine antibody coupled to Europium (Invitrogen Cat. #PV5596) which is designed to bind the polyhistidine purification tag in BTK.
It is to be expected that covalent and slow dissociating inhibitors will block binding of the tracer while rapidly dissociating non-covalent inhibitors will not. […] Data were plotted at percentage of signal obtained in the absence of competitor compound. The background signal was obtained by omission of BTK from the reaction. […] If the compound is a reversible covalent inhibitor, the tracer will bind the target as the compound dissociates from the target.

BTK [2] = molecular target: T1, BTK; test: BTK enzymatic activity assay (Caliper-based kinase assay); assay type: biochemical; settings: human recombinant BTK 0.5 nM, ATP 16 μM, 3 h room temperature
Protocol: A Caliper-based kinase assay (Caliper Life Sciences, Hopkinton, Mass.) was used to measure inhibition of BTK kinase activity of a compound of the present disclosure. […] The reaction was then terminated with EDTA, final concentration 20 mM and the phosphorylated reaction product was quantified on a Caliper Desktop Profiler (Caliper LabChip 3000). […] This value is presented as the IC50.

T1 sequence (Q06187 whole entry): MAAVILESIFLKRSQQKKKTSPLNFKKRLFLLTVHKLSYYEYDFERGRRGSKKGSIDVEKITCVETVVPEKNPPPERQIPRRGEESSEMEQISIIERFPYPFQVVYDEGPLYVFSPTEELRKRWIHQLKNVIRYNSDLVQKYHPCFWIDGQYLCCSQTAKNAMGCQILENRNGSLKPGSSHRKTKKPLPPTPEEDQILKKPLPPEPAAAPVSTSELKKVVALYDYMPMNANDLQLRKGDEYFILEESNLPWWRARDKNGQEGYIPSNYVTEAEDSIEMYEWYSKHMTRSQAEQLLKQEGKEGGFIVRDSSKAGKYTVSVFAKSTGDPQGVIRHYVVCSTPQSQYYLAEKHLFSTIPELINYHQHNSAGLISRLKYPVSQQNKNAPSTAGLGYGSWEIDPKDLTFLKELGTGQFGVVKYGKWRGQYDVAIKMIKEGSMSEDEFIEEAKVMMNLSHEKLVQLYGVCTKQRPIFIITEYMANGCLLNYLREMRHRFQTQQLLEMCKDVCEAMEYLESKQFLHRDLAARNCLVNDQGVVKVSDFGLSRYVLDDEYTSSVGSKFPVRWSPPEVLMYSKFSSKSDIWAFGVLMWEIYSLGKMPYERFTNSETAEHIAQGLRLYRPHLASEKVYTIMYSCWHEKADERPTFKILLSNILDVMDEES

Compound	% occupany at 1 h (BTK [1]) [%]	% occupany at 6 h (BTK [1]) [%]	% occupany at 24 h (BTK [1]) [%]	IC50 (BTK [2]) [nM]
CC(C)(C)C=C(C#N)C(=O)N1CCC[C@@H](n2c(=O)n(-c3ccc(Oc4ccccc4)cc3)c3c(N)nccc32)C1 [Compound 1, (R)-2-(3-(4-amino-2-oxo-3-(4-phenoxyphenyl)-2,3-dihydro-1H-imidazo[4,5-c]pyridin-1-yl)piperidine-1-carbonyl)-4,4-dimethylpent-2-enenitrile]	97.036	82.199	70.975	8.2
N#CC(=CC1CCOCC1)C(=O)N1CCC[C@@H](n2c(=O)n(-c3ccc(Oc4ccccc4)cc3)c3c(N)nccc32)C1 [Compound 2, (R)-2-(3-(4-amino-2-oxo-3-(4-phenoxyphenyl)-2,3-dihydro-1H-imidazo[4,5-c]pyridin-1-yl)piperidine-1-carbonyl)-3-(tetrahydro-2H-pyran-4-yl)acrylonitrile]	93.602	85.49	65.826	9.1
CC1(C=C(C#N)C(=O)N2CCC[C@@H](n3c(=O)n(-c4ccc(Oc5ccccc5)cc4)c4c(N)nccc43)C2)CCC1 [Compound 3, (R)-2-(3-(4-amino-2-oxo-3-(4-phenoxyphenyl)-2,3-dihydro-1H-imidazo[4,5-c]pyridin-1-yl)piperidine-1-carbonyl)-3-(1-methylcyclobutyl)acrylonitrile]	65.626	58.519	46.073	21.6
CN1CCN(c2cccc(C(C)(C)C=C(C#N)C(=O)N3CCC[C@@H](n4c(=O)n(-c5ccc(Oc6ccccc6)cc5)c5c(N)nccc54)C3)n2)CC1 [Compound 54, (R)-2-(3-(4-amino-2-oxo-3-(4-phenoxyphenyl)-2,3-dihydro-1H-imidazo[4,5-c]pyridin-1-yl)piperidine-1-carbonyl)-4-methyl-4-(6-(4-methylpiperazin-1-yl)pyridin-2-yl)pent-2-enenitrile]	–	–	–	17.8
CC(C)(C=C(C#N)C(=O)N1CCC[C@@H](n2c(=O)n(-c3ccc(Oc4ccccc4)cc3)c3c(N)nccc32)C1)c1ccccn1 [Compound 55, (R)-2-(3-(4-amino-2-oxo-3-(4-phenoxyphenyl)-2,3-dihydro-1H-imidazo[4,5-c]pyridin-1-yl)piperidine-1-carbonyl)-4-methyl-4-(pyridin-2-yl)pent-2-enenitrile]	–	–	–	3.1
CN1CCN(c2ccnc(C(C)(C)C=C(C#N)C(=O)N3CCC[C@@H](n4c(=O)n(-c5ccc(Oc6ccccc6)cc5)c5c(N)nccc54)C3)n2)CC1 [Compound 56, (R)-2-(3-(4-amino-2-oxo-3-(4-phenoxyphenyl)-2,3-dihydro-1H-imidazo[4,5-c]pyridin-1-yl)piperidine-1-carbonyl)-4-methyl-4-(4-(4-methylpiperazin-1-yl)pyrimidin-2-yl)pent-2-enenitrile]	–	–	–	7.8
COC[C@H]1CCCN1C(C)(C)C=C(C#N)C(=O)N1CCC[C@@H](n2c(=O)n(-c3ccc(Oc4ccccc4)cc3)c3c(N)nccc32)C1 [Compound 62, 2-((R)-3-(4-amino-2-oxo-3-(4-phenoxyphenyl)-2,3-dihydro-1H-imidazo[4,5-c]pyridin-1-yl)piperidine-1-carbonyl)-4-((R)-2-(methoxymethyl)pyrrolidin-1-yl)-4-methylpent-2-enenitrile]	–	–	–	5.9
COC[C@@H]1CCCN1C(C)(C)C=C(C#N)C(=O)N1CCC[C@@H](n2c(=O)n(-c3ccc(Oc4ccccc4)cc3)c3c(N)nccc32)C1 [Compound 63, 2-((R)-3-(4-amino-2-oxo-3-(4-phenoxyphenyl)-2,3-dihydro-1H-imidazo[4,5-c]pyridin-1-yl)piperidine-1-carbonyl)-4-((S)-2-(methoxymethyl)pyrrolidin-1-yl)-4-methylpent-2-enenitrile]	–	–	–	1.4
CCC1(C=C(C#N)C(=O)N2CCC[C@@H](n3c(=O)n(-c4ccc(Oc5ccccc5)cc4)c4c(N)nccc43)C2)CCOCC1 [Compound 65, (R)-2-(3-(4-amino-2-oxo-3-(4-phenoxyphenyl)-2,3-dihydro-1H-imidazo[4,5-c]pyridin-1-yl)piperidine-1-carbonyl)-3-(4-ethyltetrahydro-2H-pyran-4-yl)acrylonitrile]	–	–	–	2.4
COCC1(C=C(C#N)C(=O)N2CCC[C@@H](n3c(=O)n(-c4ccc(Oc5ccccc5)cc4)c4c(N)nccc43)C2)CCOCC1 [Compound 66, (R)-2-(3-(4-amino-2-oxo-3-(4-phenoxyphenyl)-2,3-dihydro-1H-imidazo[4,5-c]pyridin-1-yl)piperidine-1-carbonyl)-3-(4-(methoxymethyl)tetrahydro-2H-pyran-4-yl)acrylonitrile]	–	–	–	2
C=C(F)C(=O)N1CCC[C@@H](n2c(=O)n(-c3ccc(Oc4ccccc4)cc3)c3c(N)nccc32)C1 [Compound 67, (R)-4-amino-1-(1-(2-fluoroacryloyl)piperidin-3-yl)-3-(4-phenoxyphenyl)-1H-imidazo[4,5-c]pyridin-2(3H)-one]	–	–	–	1.2
(R)-2-(3-(4-amino-2-oxo-3-(4-phenoxyphenyl)-2,3-dihydro-1H-imidazo[4,5-c]pyridin-1-yl)piperidine-1-carbonyl)-3-(4-methyl-1-(oxetan-3-yl)piperidin-4-yl)acrylonitrile [Compound 42]	–	–	–	4.1

Further lines, results first:

% occupany at 1 h (BTK [1]) [%]	% occupany at 6 h (BTK [1]) [%]	% occupany at 24 h (BTK [1]) [%]	IC50 (BTK [2]) [nM]	Compound
90.005	66.344	18.2	7.8	CC(C)(C=C(C#N)C(=O)N1CCC[C@@H](n2c(=O)n(-c3ccc(Oc4ccccc4)cc3)c3c(N)nccc32)C1)N1CCOCC1 [Compound 4, (R)-2-(3-(4-amino-2-oxo-3-(4-phenoxyphenyl)-2,3-dihydro-1H-imidazo[4,5-c]pyridin-1-yl)piperidine-1-carbonyl)-4-methyl-4-morpholinopent-2-enenitrile]
93.773	83.103	57.488	2.5	CC(C)(C=C(C#N)C(=O)N1CCC[C@@H](n2c(=O)n(-c3ccc(Oc4ccccc4)cc3)c3c(N)nccc32)C1)N1CCN(C2COC2)CC1 [Compound 5, (R)-2-(3-(4-amino-2-oxo-3-(4-phenoxyphenyl)-2,3-dihydro-1H-imidazo[4,5-c]pyridin-1-yl)piperidine-1-carbonyl)-4-methyl-4-(4-(oxetan-3-yl)piperazin-1-yl)pent-2-enenitrile]
94.404	86.64	67.505	5.9	CC(C)(C=C(C#N)C(=O)N1CCC[C@@H](n2c(=O)n(-c3ccc(Oc4ccccc4)cc3)c3c(N)nccc32)C1)N1CCN(CC(F)(F)F)CC1 [Compound 6, (R)-2-(3-(4-amino-2-oxo-3-(4-phenoxyphenyl)-2,3-dihydro-1H-imidazo[4,5-c]pyridin-1-yl)piperidine-1-carbonyl)-4-methyl-4-(4-(2,2,2-trifluoroethyl)piperazin-1-yl)pent-2-enenitrile]
–	–	–	61.4	CC(C)(N)C=C(C#N)C(=O)N1CCC[C@@H](n2c(=O)n(-c3ccc(Oc4ccccc4)cc3)c3c(N)nccc32)C1 [Compound 57, (R)-4-amino-2-(3-(4-amino-2-oxo-3-(4-phenoxyphenyl)-2,3-dihydro-1H-imidazo[4,5-c]pyridin-1-yl)piperidine-1-carbonyl)-4-methylpent-2-enenitrile]
–	–	–	4.2	CC(C)(C=C(C#N)C(=O)N1CCC[C@@H](n2c(=O)n(-c3ccc(Oc4ccccc4)cc3)c3c(N)nccc32)C1)N1CCC(F)(F)C1 [Compound 58, (R)-2-(3-(4-amino-2-oxo-3-(4-phenoxyphenyl)-2,3-dihydro-1H-imidazo[4,5-c]pyridin-1-yl)piperidine-1-carbonyl)-4-(3,3-difluoropyrrolidin-1-yl)-4-methylpent-2-enenitrile]
–	–	–	2.6	CO[C@H]1CCN(C(C)(C)C=C(C#N)C(=O)N2CCC[C@@H](n3c(=O)n(-c4ccc(Oc5ccccc5)cc4)c4c(N)nccc43)C2)C1 [Compound 59, 2-((R)-3-(4-amino-2-oxo-3-(4-phenoxyphenyl)-2,3-dihydro-1H-imidazo[4,5-c]pyridin-1-yl)piperidine-1-carbonyl)-4-((S)-3-methoxypyrrolidin-1-yl)-4-methylpent-2-enenitrile]
–	–	–	2.4	CO[C@@H]1CCN(C(C)(C)C=C(C#N)C(=O)N2CCC[C@@H](n3c(=O)n(-c4ccc(Oc5ccccc5)cc4)c4c(N)nccc43)C2)C1 [Compound 60, 2-((R)-3-(4-amino-2-oxo-3-(4-phenoxyphenyl)-2,3-dihydro-1H-imidazo[4,5-c]pyridin-1-yl)piperidine-1-carbonyl)-4-((R)-3-methoxypyrrolidin-1-yl)-4-methylpent-2-enenitrile]
–	–	–	2.5	CC(C)(C=C(C#N)C(=O)N1CCC[C@@H](n2c(=O)n(-c3ccc(Oc4ccccc4)cc3)c3c(N)nccc32)C1)N1CCN2C(=O)CC[C@@H]2C1 [Compound 61, 2-((R)-3-(4-amino-2-oxo-3-(4-phenoxyphenyl)-2,3-dihydro-1H-imidazo[4,5-c]pyridin-1-yl)piperidine-1-carbonyl)-4-methyl-4-((R)-6-oxohexahydropyrrolo[1,2-a]pyrazin-2(1H)-yl)pent-2-enenitrile]
